Results on 13 molecules are retold here after patent US20090196912A1, “Pyridinylamines” (GPC Botech AG, priority 2004, published 2009).

Common to all, as to test: Generic kinase assay (33P-ATP, Myelin Basic Protein)
Holding throughout (assay type): biochemical

The target in one assay is RICK (Homo sapiens, UniProt O43353). The conditions noted are these: class symbol: % inhibition at 10 μM or IC50; for inhibition at 10 µM: 1 h, read-out: Inhibitory effect on target RICK. The procedure:
(§1) In order to determine the inhibitory effect of the compounds of the subject invention on various target enzymes a generic kinase assay was established.
(§2) Reactions were performed in 96-Well U-bottom microtiter plates (Greiner Bio-One; Frickenhausen/Germany, Cat. No. 650161), hereinafter designated “Assay Plates”. 10 μl of a solution comprising 40 μM Myelin Basic Protein (Invitrogen; Carlsbad, Calif./USA; Cat. No. 13228-010) and 4 μM ATP in three-fold concentrated Reaction Buffer (60 mM Tris-HCl, pH 7.5; 30 mM MgCl2; 3 mM dithiothreitol) were added into each well of the Assay Plate. 10 μl of serial dilutions of the compounds of the subject invention, dissolved in 4% DMSO, were then added into each well, except for Positive Control. Wells (C+ wells) and Negative Control Wells (C− wells). 10 μl of 4% DMSO without compounds were added to C+ and C− wells. 10 μl of a 500 mM solution of EDTA in water was then added to C− wells. Then 10 μl of a solution containing 50 μCi/ml Adenosine 5′-[γ-^33P]triphosphate in water was added to each well. To start the reaction 10 μl of the kinase to be assayed was added to each well. The optimal amount of kinase in the assay was determined to be the amount which yields to a turn-over of about 10% of ATP. Assay Plates were incubated for one hour at room temperature. Then 10 μl of a 500 mM solution of EDTA in water was added to each well except C− wells. Samples were now ready for measurement.
(§3) Measurements were preformed in 96-Well MAPH-Filter Plates (Millipore; Billerica, Mass./United States; Cat. No. MAPHNOB50), hereinafter designated “Measurement Plates”. Measurement Plates were washed with 200 μl of a 0.75% H3PO4 solution per well. The H3PO4 solution was exhausted using a Millipore vacuum station. 60 μl of a 0.75% H3PO4 solution was then added into each well, followed by the transfer of 30 μl of each well from the Assay Plate into the corresponding wells of the Measurement Plate. The Measurement Plate was incubated for 30 minutes at room temperature. Thereafter each well was washed three times with 200 μl of a 0.75% H3PO4 solution using a Millipore vacuum station. 20 μl of scintillation liquid (Supermix Liquid Szintillator; Perkin Elmer, Wellesley. Mass./United States; Cat. No. 1200-439) was then added to each well of the Measurement Plate. The plate was sealed and stored for 30 minutes in the darkness before radioactivity was quantified in a MicroBeta Scintillation Counter (Perkin Elmer, Wellesley. Mass./United States).

Another assay concerns the target p56Lck (Homo sapiens, UniProt P06239). Conditions: 1 h; class symbol: % inhibition at 10 μM or IC50; read-out: Inhibitory effect on target p56Lck. How it is done:
as §1, §2, §3

Another assay addresses ROCK 2 (Homo sapiens, UniProt O75116). The conditions noted are these: class symbol: % inhibition at 10 μM or IC50; for inhibition at 10 µM: 1 h, read-out: Inhibitory effect on target ROCK 2. How it is done: as §1, §2, §3
Another assay concerns PDGFR. Conditions: class symbol: % inhibition at 10 μM or IC50. The procedure:
as §1, §2, §3

For the next assay, the target named is cRaf (Homo sapiens, UniProt P04049). Conditions: 1 h; class symbol: % inhibition at 10 μM or IC50; read-out: Inhibitory effect on target cRaf. How it is done: as §1, §2, §3
In the next assay the target is Abl (Homo sapiens, UniProt P00519). Conditions: 1 h; class symbol: % inhibition at 10 μM or IC50; read-out: Inhibitory effect on target Abl. How it is done: as §1, §2, §3
The target in a further assay is EGFR (Homo sapiens, UniProt P00533). Conditions: class symbol: % inhibition at 10 μM or IC50. How it is done:
as §1, §2, §3

For another assay, the target named is c-kit (Homo sapiens, UniProt P10721). Conditions: 1 h; class symbol: % inhibition at 10 μM or IC50; read-out: Inhibitory effect on target c-kit. The procedure:
as §1, §2, §3

For the next assay, the target named is CDK1/CyclinB (Homo sapiens, UniProt P06493). The conditions noted are these: class symbol: % inhibition at 10 μM or IC50. How it is done:
as §1, §2, §3

A further assay deals with CDK2/CyclinA (Homo sapiens, UniProt P24941). Conditions: class symbol: % inhibition at 10 μM or IC50. How it is done: as §1, §2, §3

Sequence of c-kit (P10721 26-976): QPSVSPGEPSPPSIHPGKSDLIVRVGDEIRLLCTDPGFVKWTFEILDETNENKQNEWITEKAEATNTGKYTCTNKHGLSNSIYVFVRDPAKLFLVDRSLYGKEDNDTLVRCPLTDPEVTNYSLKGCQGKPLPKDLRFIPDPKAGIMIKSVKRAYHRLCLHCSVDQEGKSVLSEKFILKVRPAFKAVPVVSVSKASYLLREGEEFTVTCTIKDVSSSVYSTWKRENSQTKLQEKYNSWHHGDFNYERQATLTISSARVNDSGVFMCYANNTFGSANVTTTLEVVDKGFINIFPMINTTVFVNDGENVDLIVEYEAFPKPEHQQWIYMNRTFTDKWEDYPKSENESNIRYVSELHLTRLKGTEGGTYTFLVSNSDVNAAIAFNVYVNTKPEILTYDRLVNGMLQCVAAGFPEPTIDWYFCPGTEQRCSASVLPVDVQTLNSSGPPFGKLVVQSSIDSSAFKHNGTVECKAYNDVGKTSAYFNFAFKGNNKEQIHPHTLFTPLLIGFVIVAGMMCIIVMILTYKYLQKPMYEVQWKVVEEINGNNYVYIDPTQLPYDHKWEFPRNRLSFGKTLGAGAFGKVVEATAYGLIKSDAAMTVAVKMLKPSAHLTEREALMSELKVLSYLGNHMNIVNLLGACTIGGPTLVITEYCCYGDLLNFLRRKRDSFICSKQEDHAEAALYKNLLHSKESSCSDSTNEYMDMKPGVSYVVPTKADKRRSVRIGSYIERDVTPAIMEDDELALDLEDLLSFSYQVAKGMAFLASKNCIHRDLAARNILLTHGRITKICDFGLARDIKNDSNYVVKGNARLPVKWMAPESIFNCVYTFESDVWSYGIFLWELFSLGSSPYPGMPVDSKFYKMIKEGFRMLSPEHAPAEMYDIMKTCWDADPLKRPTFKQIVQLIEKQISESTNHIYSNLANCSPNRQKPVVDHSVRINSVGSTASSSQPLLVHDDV
Sequence of EGFR (P00533 25-1210, species assumed): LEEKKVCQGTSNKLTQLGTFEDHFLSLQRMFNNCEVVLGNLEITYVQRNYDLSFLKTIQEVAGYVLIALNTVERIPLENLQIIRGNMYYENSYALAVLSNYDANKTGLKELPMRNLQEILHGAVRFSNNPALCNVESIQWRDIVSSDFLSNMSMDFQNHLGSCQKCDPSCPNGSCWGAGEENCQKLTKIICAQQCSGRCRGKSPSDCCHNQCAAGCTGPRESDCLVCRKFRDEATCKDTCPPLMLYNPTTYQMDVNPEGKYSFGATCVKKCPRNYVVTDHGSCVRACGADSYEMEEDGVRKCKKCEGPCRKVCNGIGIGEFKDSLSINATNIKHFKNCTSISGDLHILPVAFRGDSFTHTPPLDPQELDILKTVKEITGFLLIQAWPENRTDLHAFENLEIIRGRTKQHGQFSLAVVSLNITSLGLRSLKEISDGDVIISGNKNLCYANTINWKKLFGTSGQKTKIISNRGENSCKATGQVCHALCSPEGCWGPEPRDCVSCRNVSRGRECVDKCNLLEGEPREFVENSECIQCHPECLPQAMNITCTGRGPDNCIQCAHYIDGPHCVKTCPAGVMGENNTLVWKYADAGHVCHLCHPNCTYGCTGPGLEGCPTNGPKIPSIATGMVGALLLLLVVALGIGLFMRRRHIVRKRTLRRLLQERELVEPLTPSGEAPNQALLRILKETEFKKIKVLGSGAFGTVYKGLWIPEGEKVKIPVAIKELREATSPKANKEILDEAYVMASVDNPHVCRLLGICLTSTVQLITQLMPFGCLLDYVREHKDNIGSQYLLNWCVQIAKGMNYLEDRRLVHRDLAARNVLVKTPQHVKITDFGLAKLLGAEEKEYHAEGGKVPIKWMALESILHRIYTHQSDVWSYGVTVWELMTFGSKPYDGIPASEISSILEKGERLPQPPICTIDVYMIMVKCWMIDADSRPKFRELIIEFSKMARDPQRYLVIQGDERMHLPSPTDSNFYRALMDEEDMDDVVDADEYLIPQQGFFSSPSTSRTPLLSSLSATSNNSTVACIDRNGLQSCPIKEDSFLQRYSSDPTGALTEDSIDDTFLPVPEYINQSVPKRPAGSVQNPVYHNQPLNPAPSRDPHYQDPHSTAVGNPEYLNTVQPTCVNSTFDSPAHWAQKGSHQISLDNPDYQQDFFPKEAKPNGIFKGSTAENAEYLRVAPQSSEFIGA
Sequence of RICK (O43353 whole entry, species assumed): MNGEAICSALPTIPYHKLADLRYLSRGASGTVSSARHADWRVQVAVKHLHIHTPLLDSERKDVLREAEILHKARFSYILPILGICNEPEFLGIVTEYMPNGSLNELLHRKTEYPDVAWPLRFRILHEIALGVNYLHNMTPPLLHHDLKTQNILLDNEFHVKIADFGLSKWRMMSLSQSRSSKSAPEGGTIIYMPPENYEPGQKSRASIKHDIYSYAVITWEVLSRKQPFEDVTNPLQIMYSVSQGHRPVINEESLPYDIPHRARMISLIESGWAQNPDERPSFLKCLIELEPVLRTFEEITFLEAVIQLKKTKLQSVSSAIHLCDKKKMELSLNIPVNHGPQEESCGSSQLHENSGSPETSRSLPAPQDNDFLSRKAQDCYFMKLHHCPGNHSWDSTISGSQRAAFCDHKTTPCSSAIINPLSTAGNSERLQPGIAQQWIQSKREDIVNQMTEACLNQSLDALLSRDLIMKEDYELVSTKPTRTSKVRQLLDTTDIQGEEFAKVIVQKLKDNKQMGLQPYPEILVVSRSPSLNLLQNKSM
Sequence of cRaf (P04049 whole entry, species assumed): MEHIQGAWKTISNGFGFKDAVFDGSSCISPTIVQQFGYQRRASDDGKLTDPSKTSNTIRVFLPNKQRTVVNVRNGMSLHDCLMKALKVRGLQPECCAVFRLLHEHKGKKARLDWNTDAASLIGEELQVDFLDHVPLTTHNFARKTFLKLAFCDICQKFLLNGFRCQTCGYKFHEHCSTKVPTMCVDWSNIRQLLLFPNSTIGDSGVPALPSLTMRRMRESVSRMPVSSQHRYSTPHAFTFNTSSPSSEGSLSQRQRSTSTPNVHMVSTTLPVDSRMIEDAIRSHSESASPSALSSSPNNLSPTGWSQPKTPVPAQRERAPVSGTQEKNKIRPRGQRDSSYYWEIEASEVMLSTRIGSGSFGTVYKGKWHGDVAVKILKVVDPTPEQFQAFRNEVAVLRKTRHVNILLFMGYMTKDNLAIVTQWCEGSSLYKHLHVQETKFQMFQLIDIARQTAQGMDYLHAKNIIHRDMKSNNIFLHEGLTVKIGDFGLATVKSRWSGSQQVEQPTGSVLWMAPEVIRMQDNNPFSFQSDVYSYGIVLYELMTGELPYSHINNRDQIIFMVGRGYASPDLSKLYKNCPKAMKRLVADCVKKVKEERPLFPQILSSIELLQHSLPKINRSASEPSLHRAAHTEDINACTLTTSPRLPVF
Sequence of Abl (P00519 whole entry, species assumed): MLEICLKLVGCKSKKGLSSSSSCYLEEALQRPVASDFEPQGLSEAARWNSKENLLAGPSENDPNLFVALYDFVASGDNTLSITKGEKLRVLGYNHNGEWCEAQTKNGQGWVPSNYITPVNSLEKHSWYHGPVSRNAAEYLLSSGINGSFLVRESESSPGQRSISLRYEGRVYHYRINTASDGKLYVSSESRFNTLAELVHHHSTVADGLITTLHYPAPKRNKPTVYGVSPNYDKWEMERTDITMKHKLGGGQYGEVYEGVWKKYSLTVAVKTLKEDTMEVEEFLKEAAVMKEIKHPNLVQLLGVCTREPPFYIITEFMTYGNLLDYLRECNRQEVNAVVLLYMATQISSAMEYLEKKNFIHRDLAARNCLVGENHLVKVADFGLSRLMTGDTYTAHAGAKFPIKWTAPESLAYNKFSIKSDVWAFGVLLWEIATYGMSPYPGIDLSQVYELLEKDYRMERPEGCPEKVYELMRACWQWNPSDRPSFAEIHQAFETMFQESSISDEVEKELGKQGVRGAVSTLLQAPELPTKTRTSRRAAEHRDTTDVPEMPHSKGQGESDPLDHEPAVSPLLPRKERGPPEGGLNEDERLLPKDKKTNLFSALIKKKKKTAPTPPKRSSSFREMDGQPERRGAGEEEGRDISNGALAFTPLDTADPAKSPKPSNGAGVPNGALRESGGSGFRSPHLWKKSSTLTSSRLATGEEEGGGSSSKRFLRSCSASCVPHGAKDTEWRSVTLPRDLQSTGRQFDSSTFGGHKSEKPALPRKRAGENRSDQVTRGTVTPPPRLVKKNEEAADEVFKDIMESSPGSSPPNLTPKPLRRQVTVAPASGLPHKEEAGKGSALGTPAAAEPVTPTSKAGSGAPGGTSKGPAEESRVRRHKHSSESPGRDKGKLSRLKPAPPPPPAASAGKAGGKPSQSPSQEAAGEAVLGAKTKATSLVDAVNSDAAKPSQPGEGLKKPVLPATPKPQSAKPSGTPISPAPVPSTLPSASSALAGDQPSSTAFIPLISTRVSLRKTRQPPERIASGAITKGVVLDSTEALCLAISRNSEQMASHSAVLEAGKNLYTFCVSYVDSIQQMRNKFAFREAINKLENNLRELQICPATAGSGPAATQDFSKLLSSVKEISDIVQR
Sequence of p56Lck (P06239 whole entry, species assumed): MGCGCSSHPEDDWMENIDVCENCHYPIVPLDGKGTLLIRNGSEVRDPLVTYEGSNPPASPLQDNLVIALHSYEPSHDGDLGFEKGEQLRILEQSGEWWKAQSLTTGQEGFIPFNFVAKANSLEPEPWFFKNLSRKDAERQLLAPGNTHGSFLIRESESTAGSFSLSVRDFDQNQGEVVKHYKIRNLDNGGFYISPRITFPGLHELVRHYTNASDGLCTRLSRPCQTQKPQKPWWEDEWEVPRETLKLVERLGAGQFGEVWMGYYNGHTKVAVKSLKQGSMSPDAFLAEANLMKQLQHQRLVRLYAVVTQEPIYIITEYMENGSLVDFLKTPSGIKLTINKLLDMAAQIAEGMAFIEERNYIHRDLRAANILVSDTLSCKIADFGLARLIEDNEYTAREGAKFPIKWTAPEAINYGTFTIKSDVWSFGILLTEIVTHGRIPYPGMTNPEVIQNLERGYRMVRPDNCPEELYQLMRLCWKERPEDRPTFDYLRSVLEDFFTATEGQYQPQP

As to `OCc1ccc(-c2cncc(NCc3cccc(O)c3)c2)cc1` [Compound 229, 3-{[5-(4-Hydroxymethyl-phenyl)-pyridin-3-ylamino]-methyl}-phenol], at RICK, the “Inhibitory effect on target RICK” value is listed as “C (C: IC50 measured: <1 μM)”. The inhibition at 10 µM at p56Lck is 50 to 90%; on ROCK 2 it was 50 to 90%; on cRaf, 50 to 90%; at Abl it was 50 to 90%; at c-kit, over 90%. In addition, the “Inhibitory effect on target PDGFR” value in the assay on PDGFR is given as “A (A: 50-90% inhibition at 10 μM enzyme concentration)”. For the same molecule, the “Inhibitory effect on target EGFR” value at EGFR is “A (A: 50-90% inhibition at 10 μM enzyme concentration)”.
On to `CC(=O)Nc1cccc(-c2cncc(Nc3ccc(F)cc3)c2)c1` [Compound 235, N-{3-[5-(4-Fluoro-phenylamino)-pyridin-3-yl]-phenyl}-acetamide], for which the “Inhibitory effect on target RICK” value at RICK is “C (C: IC50 measured: <1 μM)”. For the same molecule, the “Inhibitory effect on target PDGFR” value in the assay with PDGFR is “A (A: 50-90% inhibition at 10 μM enzyme concentration)”. Besides, the “Inhibitory effect on target CDK1/CyclinB” value on CDK1/CyclinB is “A (A: 50-90% inhibition at 10 μM enzyme concentration)”. On EGFR, the “Inhibitory effect on target EGFR” value is given as “A (A: 50-90% inhibition at 10 μM enzyme concentration)”.
As to `OCc1cccc(-c2cncc(NCc3cccc(O)c3)c2)c1` [Compound 216, 3-{[5-(3-Hydroxymethyl-phenyl)-pyridin-3-ylamino]-methyl}-phenol], the “Inhibitory effect on target RICK” value at RICK is recorded as “C (C: IC50 measured: <1 μM)”. The inhibition at 10 µM on p56Lck is 50 to 90%; at cRaf, 50 to 90%; at Abl it was 50 to 90%; on c-kit, over 90%. Besides, in the assay on PDGFR, the “Inhibitory effect on target PDGFR” value is listed as “A (A: 50-90% inhibition at 10 μM enzyme concentration)”. Moreover, the “Inhibitory effect on target EGFR” value on EGFR is “A (A: 50-90% inhibition at 10 μM enzyme concentration)”.
As to `COc1ccccc1Nc1cncc(-c2cccc(NC(C)=O)c2)c1` [Compound 240, N-{3-[5-(2-Methoxy-phenylamino)-pyridin-3-yl]-phenyl}-acetamide], the “Inhibitory effect on target RICK” value at RICK is “C (C: IC50 measured: <1 μM)”. In addition, the inhibition at 10 µM on p56Lck lay within 50 to 90%. Besides, the “Inhibitory effect on target PDGFR” value with PDGFR is “A (A: 50-90% inhibition at 10 μM enzyme concentration)”. For the same molecule, the “Inhibitory effect on target CDK1/CyclinB” value at CDK1/CyclinB is given as “A (A: 50-90% inhibition at 10 μM enzyme concentration)”.
Consider `Cc1ccc(CNc2cncc(-c3cccc(O)c3)c2)cc1O` [Compound 247, 5-{[5-(3-Hydroxy-phenyl)-pyridin-3-ylamino]-methyl}-2-methyl-phenol], for which, on RICK, the “Inhibitory effect on target RICK” value is given as “C (C: IC50 measured: <1 μM)”. In addition, the inhibition at 10 µM on ROCK 2 and on c-kit was 50 to 90% in each case. In addition, the “Inhibitory effect on target PDGFR” value in the assay on PDGFR is on record as “A (A: 50-90% inhibition at 10 μM enzyme concentration)”. The “Inhibitory effect on target EGFR” value at EGFR is “A (A: 50-90% inhibition at 10 μM enzyme concentration)”.
On to `Nc1cccc(-c2cncc(NCc3cccc(O)c3)c2)c1` [Compound 232, 3-{[5-(3-Amino-phenyl)-pyridin-3-ylamino]-methyl}-phenol], for which the “Inhibitory effect on target RICK” value at RICK is given as “C (C: IC50 measured: <1 μM)”. In addition, the inhibition at 10 µM was over 90% at p56Lck, 50 to 90% at cRaf, over 90% on Abl and over 90% at c-kit. For the same molecule, in the assay with PDGFR, the “Inhibitory effect on target PDGFR” value is reported as “A (A: 50-90% inhibition at 10 μM enzyme concentration)”. On EGFR, the “Inhibitory effect on target EGFR” value is on record as “A (A: 50-90% inhibition at 10 μM enzyme concentration)”.
For `O=C(O)c1cccc(-c2cncc(NCc3cccc(O)c3)c2)c1` [Compound 246, 3-[5-(3-Hydroxy-benzylamino)-pyridin-3-yl]-benzoic acid], at RICK, the “Inhibitory effect on target RICK” value is recorded as “C (C: IC50 measured: <1 μM)”. The inhibition at 10 µM was 50 to 90% on p56Lck, over 90% on cRaf, 50 to 90% on Abl and 50 to 90% at c-kit. The “Inhibitory effect on target PDGFR” value in the assay with PDGFR is on record as “A (A: 50-90% inhibition at 10 μM enzyme concentration)”. Besides, the “Inhibitory effect on target EGFR” value on EGFR is reported as “A (A: 50-90% inhibition at 10 μM enzyme concentration)”.
As to `COC(=O)c1cccc(-c2cncc(NCc3cccc(O)c3)c2)c1` [Compound 243, 3-[5-(3-Hydroxy-benzylamino)-pyridin-3-yl]-benzoic acid methyl ester], the “Inhibitory effect on target RICK” value at RICK is “C (C: IC50 measured: <1 μM)”. In addition, the inhibition at 10 µM at p56Lck is over 90%; on ROCK 2, 50 to 90%; at cRaf, 50 to 90%; on Abl it was 50 to 90%; at c-kit, 50 to 90%. Moreover, on CDK2/CyclinA, the “Inhibitory effect on target CDK2/CyclinA” value is on record as “B (B: >90% inhibition at 10 μM enzyme concentration)”.
Turning to `Oc1ccc(-c2cncc(NCc3ccc(F)c(F)c3)c2)cc1` [Compound 127, 4-[5-(3,4-Difluoro-benzylamino)-pyridin-3-yl]-phenol], the inhibition at 10 µM at RICK and at ROCK 2 was 50 to 90% each time.
As for `COc1ccc(-c2cncc(NCc3cccc(O)c3)c2)cc1OC` [Compound 223, 3-{[5-(3,4-Dimethoxy-phenyl)-pyridin-3-ylamino]-methyl}-phenol], the “Inhibitory effect on target RICK” value on RICK is reported as “C (C: IC50 measured: <1 μM)”. In addition, the inhibition at 10 µM at p56Lck was 50 to 90%; on cRaf, 50 to 90%; at Abl, 50 to 90%; on c-kit, over 90%. Further, the “Inhibitory effect on target PDGFR” value in the assay on PDGFR is “A (A: 50-90% inhibition at 10 μM enzyme concentration)”. Moreover, the “Inhibitory effect on target EGFR” value at EGFR was “A (A: 50-90% inhibition at 10 μM enzyme concentration)”.
Consider `NC(=O)c1cccc(-c2cncc(NCc3cccc(O)c3)c2)c1` [Compound 230, 3-[5-(3-Hydroxy-benzylamino)-pyridin-3-yl]-benzamide], for which, on RICK, the “Inhibitory effect on target RICK” value was “C (C: IC50 measured: <1 μM)”. Further, the inhibition at 10 µM at p56Lck was over 90%; at cRaf it was 50 to 90%; on Abl, over 90%; at c-kit it was over 90%. The “Inhibitory effect on target ROCK 2” value on ROCK 2 is on record as “C (C: IC50 measured: <1 μM)”. The “Inhibitory effect on target EGFR” value at EGFR is “A (A: 50-90% inhibition at 10 μM enzyme concentration)”.
Regarding `Oc1cccc(CNc2cncc(-c3cccc(O)c3)c2)c1` [Compound 225, 3-{5-[(3-Hydroxybenzyl)amino]pyridin-3-yl}phenol], the “Inhibitory effect on target RICK” value at RICK was “C (C: IC50 measured: <1 μM)”. Moreover, the inhibition at 10 µM is over 90% on p56Lck; 50 to 90% at ROCK 2; 50 to 90% on cRaf; 50 to 90% at Abl; over 90% at c-kit. Moreover, the “Inhibitory effect on target PDGFR” value in the assay on PDGFR is “A (A: 50-90% inhibition at 10 μM enzyme concentration)”. Also, the “Inhibitory effect on target EGFR” value on EGFR was “A (A: 50-90% inhibition at 10 μM enzyme concentration)”.
`Oc1ccc(-c2cncc(NCc3ccc4c(c3)OCO4)c2)cc1` [Compound 126, 4-{5-[(Benzo[1,3]dioxol-5-ylmethyl)-amino]-pyridin-3-yl}-phenol]: the inhibition at 10 µM at RICK and at ROCK 2 was 50 to 90% in each case.
